Test results from US10858314B2, “Urea derivative or pharmacologically acceptable salt thereof” (KYORIN PHARMACEUTICAL CO., LTD., priority 2015, dated 2020).
pEC50: −log10 of the molar value.

What was measured:
human FPRL1 = molecular target: T1, human FPRL1 (Homo sapiens, UniProt P25090); test: Measurement test of agonist activity on human FPRL1 (test of calcium mobilization in HEK293 cells transfected with human FPRL1 and Gα15); type: cell-based; conditions: read-out: Efficacy EC50
T1 construct: expressed in transfected cells; host or cells: HEK293 (JCRB9068, NIBIO), transient co-transfection of pCMV-script vectors with Lipofectamine 2000
T1 sequence (P25090 1-351): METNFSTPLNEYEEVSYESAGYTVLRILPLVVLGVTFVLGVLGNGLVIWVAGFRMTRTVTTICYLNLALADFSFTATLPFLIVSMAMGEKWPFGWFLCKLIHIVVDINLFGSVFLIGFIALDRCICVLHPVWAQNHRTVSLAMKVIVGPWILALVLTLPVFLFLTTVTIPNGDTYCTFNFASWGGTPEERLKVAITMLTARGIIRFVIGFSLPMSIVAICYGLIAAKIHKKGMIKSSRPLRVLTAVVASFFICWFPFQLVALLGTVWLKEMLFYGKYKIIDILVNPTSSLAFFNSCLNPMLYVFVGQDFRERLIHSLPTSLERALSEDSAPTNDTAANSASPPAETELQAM
Text: Measurement Test of Agonist Activity on Human FPRL1
(1-1) Construction of Human FPRL1 Expression Vector
Human FPRL (SEQ ID NO: 3) was amplified in a PCR reaction from cDNA derived from a monocytic leukemia cell line THP-1 (TIB-202, ATCC) as a template using a forward primer shown in SEQ ID NO: 1, a reverse primer shown in SEQ ID NO: 2, and KOD-plus-ver. 2 (KOD-211, TOYOBO CO., LTD.). […] 2 (LGK-201, TOYOBO CO., LTD.). The ligation product was transformed into DH5α (DNA-901, TOYOBO CO., LTD.), cultured on a 100 μg/mL kanamycin-containing LB medium, and purified with HiSpeed Plasmid Maxi Kit (12662, QIAGEN).
(1-2) Construction of Human Gα15 Expression Vector
2. The amplified PCR product and pCMV-script vector were digested with Hind III and XhoI, and the resultant digest was ligated with Ligation high ver. 2. The ligation product was transformed into DH5α, cultured on a 100 μg/mL kanamycin-containing LB medium, and purified with HiSpeed Plasmid Maxi Kit.
(2-1) Method for Culturing and Subculturing HEK293
HEK293 (JCRB9068, NIBIO) was cultured in an incubator at 5% CO2 and 37° C. using DMEM (11885-092, GIBCO) containing 10% FBS and 1× Penicillin-Streptomycin (15140-122, GIBCO).
(2-2) Introduction of Human FPRL1 and Gα15 Expression Vectors
The cells were inoculated in a Collagen Type 1 coated 6-well plate (4810-010, IWAKI) to 5×10^5 cells/2.5 mL/well and cultured overnight. On the next day, human FPRL1 and Gα15 expression vectors were introduced using Lipofectamine 2000 transfection reagent (11668-019, Life technologies). First, the human FPRL1 and Gα15 expression vectors were diluted with Opti-MEM I Reduced Serum Medium (31985-070, GIBCO) to 2 μg/250 μL/well and Lipofectamine 2000 transfection reagent was diluted with Opti-MEM I Reduced Serum Medium to be 4 μL/250 μL/well. The vectors and reagent were softly diffused, and incubated at room temperature for 5 minutes. The vector solution was mixed with Lipofectamine 2000 transfection reagent in equal amounts. In order to form a complex of the vectors and Lipofectamine 2000 transfection reagent, the mixture was incubated at room temperature for 20 minutes, and added at 500 μL/well to the medium of inoculated cells. The treated cells were cultured for 24 hours, inoculated in Poly-D-Lysine coated 96-well plate (356640, BD Biosciences) at a cell density of 7×10^4 cells/100 μL/well, and cultured for another 24 hours. The resultant cells were used in a measurement test of calcium mobilization in the cells.
(3) Evaluation of Agonist Activity on Human FPRL1 (Test of Calcium Mobilization in Cell)
An appropriate amount of each test compound was first weighed, and dissolved to 10^−2 M by addition of dimethyl sulfoxide (DMSO). […] The plate dispensed with compound solutions was set in Flexstation (Molecular Devices, LLC.) until measurement.
Subsequently, 10 mL of assay buffer and 100 μL of probenecid solution (dissolved by addition of 1 mL of assay buffer to a 250 mM stock) were sufficiently mixed and dissolved in Fluo-4 NW dye mix. The medium of cells inoculated on the previous day was removed, the dissolved Fluo-4 NW dye mix was added in an amount of 90 μL/well, and a reaction was caused in the dark at 37° C. for 45 minutes. The cells after the reaction and chips for addition of the compound were set in Flexstation, and variation in fluorescence intensity over time after addition of the compound was measured [amount of added compound=10 μL (final concentration 10^−5 M to 10^−12 M), excitation wavelength: 485 nm, measured wavelength: 525 nm, 1.5 sec×54 read]. A value was calculated by subtracting a base value during addition of DMSO from the maximum value of relative fluorescence unit, and analyzed. All the measurement data were analyzed with Prism 4 that was a data analysis tool.

[1] = test system: neutrophilic infiltration in mouse lung; test: Effect on lipopolysaccharide-induced neutrophilic infiltration in mouse lung (BAL fluid neutrophil count); type: in vivo; conditions: oral, 30 minutes before LPS aerosol, BAL fluid neutrophils after 5 hours, mouse (BALB/c, male)
Description: Effect of Lipopolysaccharide Induction on Neutrophilic Infiltration in Mouse Lung
A compound to be tested was orally administrated to a mouse (BALB/c, male), and after 30 minutes, the mouse was placed in a plastic container. Lipopolysaccharide (0.3 mg/mL) dissolved in physiological saline was aerosolized with an ultrasonic wave nebulizer (NE-U17, OMRON Corporation), and exposed to the mouse for 10 minutes. After 5 hours, the anesthetized mouse was sacrificed by exsanguination. A cannula was inserted in the respiratory tract and bronchoalveolar lavage (BAL) with 1 mL of […] liquid containing 0.4% sodium citrate was carried out. This operation was repeated 3 times, to obtain a BAL fluid. The BAL fluid was centrifuged at 4° C. and ×200 g for 5 minutes, and the pellet was suspended in a physiological saline containing 0.1% BSA. The number of white blood cells was counted using Turks solution with a microscope, and the total white blood cell count was calculated. The white blood cells were fixed on a glass slide using Cytospin 3 (Thermo BioAnalysis Japan K. K.). The cells were stained with Diff-Quik (SYSMEX INTERNATIONAL REAGENTS CO., LTD.), and the number thereof was counted with a microscope, and the neutrophil ratio was calculated. The neutrophil ratio was multiplied by the total white blood cell count to calculate the total neutrophil count. An effect of the compound to be tested represents a percentage (%) of suppression ratio relative to the neutrophil count in a control.

Row | Structure (SMILES) | pEC50 (human FPRL1) | further results
1 | COc1ccc(C[C@H](NC(=O)Nc2ccc(Cl)cc2)c2nnn(CCO)n2)cc1 [Example 1-1, (−)-(S)-1-(4-Chlorophenyl)-3-{1-[2-(2-hydroxyethyl)-2H-tetrazol-5-yl]-2-(4-methoxyphenyl)ethyl}urea] | 9.60 | Suppression Ratio (%) ([1]; dose 1 mg/kg): 95.7%
2 | N#Cc1ccc(C[C@H](NC(=O)Nc2ccc(Cl)cc2)c2nnn(CCO)n2)cc1 [Example 1-5, (S)-1-(4-chlorophenyl)-3-{2-(4-cyanophenyl)-1-[2-(2-hydroxyethyl)-2H-tetrazol-5-yl]ethyl}urea] | 9.24 | 
3 | O=C(Nc1ccc(Cl)cc1)N[C@@H](Cc1ccc(Cl)cc1)c1nnn(CCO)n1 [Example 1-7, (−)-(S)-1-(4-chlorophenyl)-3-{2-(4-chlorophenyl)-1-[2-(2-hydroxyethyl)-2H-tetrazol-5-yl]ethyl}urea] | 8.57 | 
4 | O=C(Nc1ccc(F)cc1)N[C@@H](Cc1ccc(Cl)cc1)c1nnn(CCO)n1 [Example 1-8, (−)-(S)-1-{2-(4-chlorophenyl)-1-[2-(2-hydroxyethyl)-2H-tetrazol-5-yl]ethyl}-3-(4-fluorophenyl)urea] | 8.86 | 
5 | CCc1ccc(C[C@H](NC(=O)Nc2ccc(Cl)cc2)c2nnn(CCO)n2)cc1 [Example 1-11, (S)-1-(4-chlorophenyl)-3-{2-(4-ethylphenyl)-1-[2-(2-hydroxyethyl)-2H-tetrazol-5-yl]ethyl}urea] | 9.66 | 
6 | CCc1ccc(C[C@H](NC(=O)Nc2ccc(Cl)cc2)c2noc(N(C)CCO)n2)cc1 [Example 1-15, (S)-1-(4-chlorophenyl)-3-(2-(4-ethylphenyl)-1-{5-[(2-hydroxyethyl)(methyl)amino]-1,2,4-oxadiazol-3-yl}ethyl)urea] | 9.20 | Suppression Ratio (%) ([1]; dose 3 mg/kg): 95.7%
7 | COc1ccc(C[C@H](NC(=O)Nc2ccc(Cl)cc2)c2nnc(CCO)o2)cc1 [Example 1-20, (S)-1-(4-chlorophenyl)-3-{1-[5-(2-hydroxyethyl)-1,3,4-oxadiazol-2-yl]-2-(4-methoxyphenyl)ethyl}urea] | 9.77 | Suppression Ratio (%) ([1]; dose 3 mg/kg): 94%
8 | CCc1ccc(C[C@H](NC(=O)Nc2ccc(Cl)cc2)c2nnc(CCO)o2)cc1 [Example 1-73, (−)-(S)-1-(4-chlorophenyl)-3-(2-(4-ethylphenyl)-1-(5-(3-hydroxyethyl)-1,3,4-oxadiazol-2-yl)ethyl)urea] | 9.14 | 
9 | COc1ccc(CC(Cc2nnc(O)o2)NC(=O)Nc2ccc(Cl)cc2)cc1 (centres unmarked) [Example 1-75, 1-(4-chlorophenyl)-3-(1-(5-hydroxy-1,3,4-oxadiazol-2-yl)-3-(4-methoxyphenyl)propan-2-yl)urea] | 8.85 | 
10 | COc1ccc(CC(NC(=O)Nc2ccc(Cl)cc2)/C(N)=N/O)cc1 (centres unmarked) [Example 4] | 9.47 | 
11 | CNC(=O)c1ncoc1[C@H](Cc1ccc(OC)cc1)NC(=O)Nc1ccc(Cl)cc1 [Example 14-3, (S)-5-(1-(3-(4-chlorophenyl)ureido)-2-(4-methoxyphenyl)ethyl)-N-methyl-oxazole-4-carboxamide] | 9.66 | 
12 | COc1ccc(C[C@H](NC(=O)Nc2ccc(Cl)cc2)c2ocnc2C(=O)N(C)C)cc1 [Example 14-4, (S)-5-(1-(3-(4-chlorophenyl)ureido)-2-(4-methoxyphenyl)-ethyl)-N,N-dimethyloxazole-4-carboxamide] | 9.52 | 
13 | N/C(=N\C(=O)CCO)[C@H](Cc1ccc(Cl)cc1)NC(=O)Nc1ccc(Cl)cc1 [Example 26-5 (B), (S)-N-{3-(4-chlorophenyl)-2-[3-(4-chloro-phenyl)ureido]-1-iminopropyl}-3-hydroxypropan-amide] | 9.18 | Suppression Ratio (%) ([1]; dose 3 mg/kg): 86%

Now from value to molecule, other results behind:

Row | pEC50 (human FPRL1) | Structure (SMILES) | further results
14 | 9.52 | CN(CCO)c1nc([C@H](Cc2ccc(Cl)cc2)NC(=O)Nc2ccc(Cl)cc2)no1 [Example 18-11, (S)-1-(4-chloro-phenyl)-3-(2-(4-chlorophenyl)-1-(5-((2-hydroxy-ethyl)(methyl)-amino)-1,2,4-oxadiazol-3-yl)ethyl)urea] | 
15 | 9.25 | CCc1ccc(C[C@H](NC(=O)Nc2ccc(Cl)cc2)/C(N)=N/OCCO)cc1 [Example 19-1, (+)-(S,Z)-2-[3-(4-Chlorophenyl)ureido]-3-(4-ethylphenyl)-N′-(2-hydroxyethoxy)propanimidamide] | Suppression Ratio (%) ([1]; dose 3 mg/kg): 96.9%
16 | 9.70 | N/C(=N\OCCO)[C@H](Cc1ccc(Cl)cc1)NC(=O)Nc1ccc(Cl)cc1 [Example 22-2, (+)-(S,Z)-3-(4-chlorophenyl)-2-(3-(4-chloro-phenyl)ureido)-N′-(2-hydroxy-ethoxy)propan-imidamide] | 
17 | 9.82 | COc1ccc(C[C@H](NC(=O)Nc2ccc(Cl)cc2)/C(N)=N/C(=O)CCO)cc1 [Example 26-2, (S)-N-{2-[3-(4-chlorophenyl)-ureido]-1-imino-3-(4-methoxy-phenyl)propyl}-3-hydroxypropanamide] | 
18 | 9.39 | COc1ccc(CC(NC(=O)Nc2ccc(Cl)cc2)/C(N)=N/C(=O)CO)cc1 (centres unmarked) [Example 26-11, N-{2-[3-(4-chlorophenyl)-ureido]-1-imino-3-(4-methoxy-phenyl)propyl}-2-hydroxyacetamide] | 
19 | 8.07 | COc1ccc(CC(CO)NC(=O)Nc2ccc(Br)cc2)cc1 (centres unmarked) [Example 31-25, 1-(4-bromo-phenyl)-3-(1-hydroxy-3-(4-methoxyphenyl)-propan-2-yl)urea] | 
20 | 8.39 | COc1ccc(C[C@H](CO)NC(=O)Nc2ccc(Cl)cc2)cc1 [Example 31-29] | Suppression Ratio (%) ([1]; dose 10 mg/kg): 95.5%
